One data set deals with A431 (WT). The data set can be described thus: EGFR cell proliferation assay (CellTiter-Glo), A431. It counts as cell-based. Particulars: Homo sapiens, A-431, 3-5 days of compound treatment. The procedure: (§1) Cell Lines: A431 (WT), H1975 (L858R/T790M), PC9 (E746-A750 deletion): A431 cells were grown in DMEM (Invitrogen, Carlsbad, CA) supplemented with 10% FBS (HyClone, South Logan, UT) and 1% Penicillin-Streptomycin (P/S, Lonza, Walkersville, MD). H1975 cells were grown in RPMI 1640 (Invitrogen) supplemented with 10% FBS and 1% P/S. […] PC-9 cells were obtained from Japan. All cells were maintained and propagated as monolayer cultures at 37° C. in a humidified 5% CO2 incubator. All cells were cultured according to recommendations.
(§2) Cell proliferation was measured using the CellTiter-Glo® Luminescent Cell Viability Assay. The assay involved the addition of a single reagent (CellTiter-Glo® Reagent) directly to cells cultured in serum-supplemented medium. The assay used a one-step addition to induce cell lysis and generate a luminescent signal proportional to the amount of ATP present, which is directly proportional to the number of metabolically active cells present in culture.
(§3) Each compound evaluated was prepared as a DMSO stock solution (10 mM). Compounds were tested in duplicate on each plate, with an 11-point serial dilution curve (1:3 dilution). Compound treatment (50 μL) was added from the compound dilution plate to the cell plate. The highest compound concentration was 1 or 10 μM (final), with a 0.3% final DMSO (#D-5879, Sigma, St Louis, MO) concentration. Plates were then incubated at 37° C., 5% CO2. After 3-5 days of compound treatment, CellTiter-Glo® Reagent (#G7573, Promega, Madison, WI) was prepared in one of two ways. If thawing a frozen aliquot of CellTiter-Glo® Reagent, the aliquot was thawed and equilibrated to RT prior to use while keeping it protected from light. Alternatively, new bottles of CellTiter-Glo® Buffer and CellTiter-Glo® Substrate were thawed and equilibrated to RT prior to use. CellTiter-Glo® Buffer (100 mL) was transferred into the amber bottle containing CellTiter-Glo® Substrate to reconstitute the lyophilized enzyme/substrate mixture, forming the CellTiter-Glo® Reagent. The reconstituted reagent was mixed by gently inverting the contents to obtain a homogeneous solution, and went into solution easily in less than 1 min. Any unused reconstituted CellTiter-Glo® Reagent was immediately aliquoted and frozen at −20° C., and protected from light. Cell plates were equilibrated at RT for approximately 30 mins. An equi-volume amount of CellTiter-Glo® Reagent (100 μL) was added to each well. Plates were mixed for 2 mins on an orbital shaker to induce cell lysis, and then were allowed to incubate at RT for 10 mins to stabilize the luminescent signal. Luminescence was recorded using the PerkinElmer EnVision Excite Multilabel Reader used for endpoint reading for luminescence detection (Waltham, MA). Data was analyzed using a four-parameter fit in Microsoft Excel.
In general terms: Cellular ATP, detected with luciferase, serves as a proxy for viable cell number.

A further data set concerns the target T1, EGFR (T790M/L858R) (Homo sapiens, UniProt P00533, L858R/T790M).
T1 construct: with amino acids 696-end containing the T790M and L858R mutations; GST (N); purchased Millipore
Briefly: EGFR biochemical enzyme assay (CisBio HTRF KinEASE TK). Particulars: 30 μM ATP in substrate mix, 50 mins incubation. The procedure:
(§4) The inhibitory activity of a compound against EGFR (T790M/L858R) were determined with CisBio HTRF (homogenous time-resolved fluorescence) KinEASE TK (#62TKOPEC). The enzyme reaction contained recombinant N-terminal GST-tagged human EGFR (T790M/L858R), which phosphorylates the HTRF tyrosine kinase biotinylated substrate.
(§5) The sequence of the substrate is proprietary to CisBio. Test compounds were serially diluted in 100% (v/v) DMSO before being acoustically dispensed from an Echo 555 (Labcyte) into black Corning 1536-well assay plates. Kinase activity assays were performed in a total reaction volume of 3 μL per well. A 1.5 μL enzyme reaction consisted of 1.6 nM EGFR ([…], L858R), 1 mM DTT, and 10 mM MgCl2. A 1.5 μL substrate mix consisted of 1 μM TK substrate, 30 μM ATP, 1 mM DTT, and 10 mM MgCl2. Following a 50 mins incubation, 3 μL of stop mix was added, which consisted of 250 nM Strep-XL665 and TK Ab-Cryptate diluted in kit detection buffer. The plates were incubated for 1 h before being read on Pherastar using standard HTRF settings. N-terminal GST-tagged recombinant human EGF receptor, with amino acids 696-end containing the T790M and L858R mutations, was obtained from Millipore.
For orientation: Time-resolved FRET reads energy transfer from a long-lived donor to a nearby acceptor.

The next data set concerns H1975 (L858R/T790M). The data set can be described thus: EGFR cell proliferation assay (CellTiter-Glo), H1975. The format is cell-based. Particulars: Homo sapiens, NCI-H1975, 3-5 days of compound treatment. The procedure:
as §1, §2, §3

The next data set concerns PC9 (E746-A750 deletion). Briefly: EGFR cell proliferation assay (CellTiter-Glo), PC9. The format is cell-based. The settings on record: 3-5 days of compound treatment. The procedure: as §1, §2, §3
The next data set has as its target IGF1R (Homo sapiens, UniProt P08069). The data set can be described thus: Biochemical enzyme assay, IGF1R.
Another data set deals with INSR (Homo sapiens, UniProt P06213). The data set can be described thus: Biochemical enzyme assay, INSR.
Sequence of INSR (P06213 28-1382, species assumed): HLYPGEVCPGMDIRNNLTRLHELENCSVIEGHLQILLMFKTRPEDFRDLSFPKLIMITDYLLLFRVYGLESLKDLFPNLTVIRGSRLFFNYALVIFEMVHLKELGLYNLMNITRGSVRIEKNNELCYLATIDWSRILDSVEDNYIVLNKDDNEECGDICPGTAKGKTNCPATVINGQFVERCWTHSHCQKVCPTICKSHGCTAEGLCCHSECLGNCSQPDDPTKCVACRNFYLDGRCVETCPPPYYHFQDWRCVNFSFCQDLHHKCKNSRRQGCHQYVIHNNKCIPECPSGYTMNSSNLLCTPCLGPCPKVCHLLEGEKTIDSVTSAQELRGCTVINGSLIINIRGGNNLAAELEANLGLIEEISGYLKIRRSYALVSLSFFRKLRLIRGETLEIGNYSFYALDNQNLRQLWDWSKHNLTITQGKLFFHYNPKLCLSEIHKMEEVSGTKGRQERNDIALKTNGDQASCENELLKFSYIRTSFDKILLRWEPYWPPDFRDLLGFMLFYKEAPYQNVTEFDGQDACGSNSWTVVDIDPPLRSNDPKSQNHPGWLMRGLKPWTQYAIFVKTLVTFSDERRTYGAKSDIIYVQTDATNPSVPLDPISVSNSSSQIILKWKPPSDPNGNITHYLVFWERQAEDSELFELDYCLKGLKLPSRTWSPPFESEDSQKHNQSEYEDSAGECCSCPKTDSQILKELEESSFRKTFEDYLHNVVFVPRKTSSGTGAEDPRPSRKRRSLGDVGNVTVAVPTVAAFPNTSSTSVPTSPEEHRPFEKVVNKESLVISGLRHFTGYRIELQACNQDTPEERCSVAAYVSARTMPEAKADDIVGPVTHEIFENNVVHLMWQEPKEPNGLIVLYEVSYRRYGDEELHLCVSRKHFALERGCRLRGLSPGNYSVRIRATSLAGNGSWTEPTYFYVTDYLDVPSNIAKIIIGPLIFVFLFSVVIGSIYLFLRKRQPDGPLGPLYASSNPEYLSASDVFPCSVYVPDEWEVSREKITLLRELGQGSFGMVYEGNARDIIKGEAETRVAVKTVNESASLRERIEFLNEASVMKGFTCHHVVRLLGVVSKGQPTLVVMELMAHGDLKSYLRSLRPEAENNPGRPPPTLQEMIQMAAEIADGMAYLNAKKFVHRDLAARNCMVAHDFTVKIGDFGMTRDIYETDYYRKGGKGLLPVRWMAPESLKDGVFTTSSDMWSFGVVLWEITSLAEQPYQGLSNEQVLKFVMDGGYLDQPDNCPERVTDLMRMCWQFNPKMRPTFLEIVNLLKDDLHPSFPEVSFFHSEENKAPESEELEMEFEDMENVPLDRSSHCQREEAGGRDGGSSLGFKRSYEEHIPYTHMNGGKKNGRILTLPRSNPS
The next data set addresses T2, EGFR Del-19 (Homo sapiens, UniProt P00533).
T2 construct: as for the T790M/L858R enzyme of the same protocol
Briefly: EGFR biochemical enzyme assay, Del-19. The procedure:
[The source words this procedure for another variant and reports this variant under the same test.] as §4, §5

Another data set has as its target EGFR Wt (Homo sapiens, UniProt P00533). The data set can be described thus: EGFR biochemical enzyme assay, Wt. The procedure: [The source words this procedure for another variant and reports this variant under the same test.] as §4, §5
A further data set deals with EGFR L858R (Homo sapiens, UniProt P00533, L858R). The data set can be described thus: EGFR biochemical enzyme assay, L858R. The procedure:
[The source words this procedure for another variant and reports this variant under the same test.] as §4, §5

The next data set has as its system hepatocytes. The data set can be described thus: Metabolite identification in hepatocytes, human. It counts as in vitro ADME. The settings on record: 10 μM, 240 min, formation of AZ5104 via de-alkylation on the indole ring. The procedure: Suspended hepatocytes in enough incubation medium to yield ˜1.5×10^6 cells/mL. Pipetted 199 μL of viable hepatocytes or the boiled hepatocytes into each wells of a 96-well non-coated plate. Placed the plate in the incubator on an orbital shaker to allow the hepatocytes to warm for 10 minutes. Pipetted 1 μL of the 2 mM test compound(s) into respective wells of the 96-well non-coated plate to start the reaction with final concentration of 10 μM. Returned the plate to the incubator and placed on an orbital shaker. Incubated at 37° C., 5% CO2 and 90-95% relative humidity with shaking at 500 rpm on the shaker for 240 min. After incubation, transferred media from each well to a tube containing 400 μL cold methanol, washed the well with 200 μL cold methanol and then transferred the media to the corresponding tube. Centrifuged tubes for 10 minutes at 16,000 g. Aliquots of 200 μL of the supernatants were mixed with 200 μL of pure water and used for LC-MS/MS analysis. UHPLC-MS/MS analysis was conducted using a Dionex UltiMate 3000 UHPLC system (Thermo Fisher Scientific, USA) and Thermo Scientific Q Exactive (Thermo Fisher Scientific, USA) fitted with a HESI probe. […]

A value given as a limit tells only on which side of the number the result lay.

The IC50 is the concentration at which inhibition is half-maximal.

T2 sequence (P00533 with tags, fused parts or gaps DEL746-750): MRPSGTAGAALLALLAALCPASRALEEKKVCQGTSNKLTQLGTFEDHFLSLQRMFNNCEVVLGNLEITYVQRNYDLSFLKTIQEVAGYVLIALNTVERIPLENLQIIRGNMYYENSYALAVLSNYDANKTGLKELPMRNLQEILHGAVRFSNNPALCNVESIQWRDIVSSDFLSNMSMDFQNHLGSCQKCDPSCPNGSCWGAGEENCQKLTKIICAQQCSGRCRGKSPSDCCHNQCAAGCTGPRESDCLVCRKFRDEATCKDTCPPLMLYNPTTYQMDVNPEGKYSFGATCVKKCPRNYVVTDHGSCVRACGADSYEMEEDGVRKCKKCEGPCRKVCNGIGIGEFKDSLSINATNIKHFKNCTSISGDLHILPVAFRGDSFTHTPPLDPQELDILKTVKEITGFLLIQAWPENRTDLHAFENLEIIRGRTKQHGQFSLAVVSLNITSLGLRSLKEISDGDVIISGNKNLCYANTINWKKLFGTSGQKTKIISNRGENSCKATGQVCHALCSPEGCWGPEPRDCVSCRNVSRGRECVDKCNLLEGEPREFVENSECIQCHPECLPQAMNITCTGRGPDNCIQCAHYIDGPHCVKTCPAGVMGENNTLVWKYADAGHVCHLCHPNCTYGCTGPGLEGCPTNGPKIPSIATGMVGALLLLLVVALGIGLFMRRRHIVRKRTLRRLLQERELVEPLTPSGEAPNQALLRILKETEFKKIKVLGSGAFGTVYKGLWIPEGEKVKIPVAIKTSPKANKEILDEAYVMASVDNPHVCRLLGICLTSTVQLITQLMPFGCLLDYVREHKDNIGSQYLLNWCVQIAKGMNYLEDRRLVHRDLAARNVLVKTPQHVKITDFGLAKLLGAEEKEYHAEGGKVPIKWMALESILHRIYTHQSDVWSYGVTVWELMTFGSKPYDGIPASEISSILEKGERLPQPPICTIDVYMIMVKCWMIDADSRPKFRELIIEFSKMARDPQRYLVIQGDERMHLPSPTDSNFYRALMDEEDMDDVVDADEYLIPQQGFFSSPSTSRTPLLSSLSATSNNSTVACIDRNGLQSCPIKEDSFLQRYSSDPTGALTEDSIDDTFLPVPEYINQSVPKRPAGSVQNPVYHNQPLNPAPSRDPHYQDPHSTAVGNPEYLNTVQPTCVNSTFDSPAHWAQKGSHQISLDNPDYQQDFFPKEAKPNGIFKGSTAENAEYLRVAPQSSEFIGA
Sequence of EGFR Wt (P00533 25-1210): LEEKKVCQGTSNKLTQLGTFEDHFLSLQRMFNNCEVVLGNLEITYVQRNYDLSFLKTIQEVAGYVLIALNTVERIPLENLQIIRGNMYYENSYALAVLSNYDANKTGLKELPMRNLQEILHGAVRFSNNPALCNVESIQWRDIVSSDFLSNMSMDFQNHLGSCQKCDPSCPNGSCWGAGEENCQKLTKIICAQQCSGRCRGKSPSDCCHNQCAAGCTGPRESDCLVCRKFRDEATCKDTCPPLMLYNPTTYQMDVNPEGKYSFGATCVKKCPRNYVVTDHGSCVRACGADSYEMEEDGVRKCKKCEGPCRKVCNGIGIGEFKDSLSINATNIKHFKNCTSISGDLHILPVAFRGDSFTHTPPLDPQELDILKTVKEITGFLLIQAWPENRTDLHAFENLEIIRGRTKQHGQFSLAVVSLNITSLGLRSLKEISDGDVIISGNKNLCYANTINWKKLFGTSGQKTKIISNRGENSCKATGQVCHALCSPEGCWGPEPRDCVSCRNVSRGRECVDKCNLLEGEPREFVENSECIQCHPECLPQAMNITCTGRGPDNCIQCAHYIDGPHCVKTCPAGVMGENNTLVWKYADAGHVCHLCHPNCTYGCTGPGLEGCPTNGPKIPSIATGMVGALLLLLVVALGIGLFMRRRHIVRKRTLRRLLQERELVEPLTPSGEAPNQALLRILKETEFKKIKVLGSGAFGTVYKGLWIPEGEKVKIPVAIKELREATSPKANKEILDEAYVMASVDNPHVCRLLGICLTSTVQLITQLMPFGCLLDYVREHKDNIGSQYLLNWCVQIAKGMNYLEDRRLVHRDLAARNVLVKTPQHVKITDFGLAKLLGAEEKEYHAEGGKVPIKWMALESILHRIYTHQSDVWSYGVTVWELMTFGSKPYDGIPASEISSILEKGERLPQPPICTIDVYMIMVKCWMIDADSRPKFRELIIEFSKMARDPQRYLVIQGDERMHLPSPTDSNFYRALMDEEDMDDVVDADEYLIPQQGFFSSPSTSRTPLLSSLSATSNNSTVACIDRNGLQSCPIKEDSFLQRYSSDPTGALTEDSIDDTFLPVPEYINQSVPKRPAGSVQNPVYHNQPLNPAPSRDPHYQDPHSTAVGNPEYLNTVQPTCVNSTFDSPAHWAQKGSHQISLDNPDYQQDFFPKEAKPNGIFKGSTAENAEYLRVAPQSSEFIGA
Sequence of IGF1R (P08069 31-1367, species assumed): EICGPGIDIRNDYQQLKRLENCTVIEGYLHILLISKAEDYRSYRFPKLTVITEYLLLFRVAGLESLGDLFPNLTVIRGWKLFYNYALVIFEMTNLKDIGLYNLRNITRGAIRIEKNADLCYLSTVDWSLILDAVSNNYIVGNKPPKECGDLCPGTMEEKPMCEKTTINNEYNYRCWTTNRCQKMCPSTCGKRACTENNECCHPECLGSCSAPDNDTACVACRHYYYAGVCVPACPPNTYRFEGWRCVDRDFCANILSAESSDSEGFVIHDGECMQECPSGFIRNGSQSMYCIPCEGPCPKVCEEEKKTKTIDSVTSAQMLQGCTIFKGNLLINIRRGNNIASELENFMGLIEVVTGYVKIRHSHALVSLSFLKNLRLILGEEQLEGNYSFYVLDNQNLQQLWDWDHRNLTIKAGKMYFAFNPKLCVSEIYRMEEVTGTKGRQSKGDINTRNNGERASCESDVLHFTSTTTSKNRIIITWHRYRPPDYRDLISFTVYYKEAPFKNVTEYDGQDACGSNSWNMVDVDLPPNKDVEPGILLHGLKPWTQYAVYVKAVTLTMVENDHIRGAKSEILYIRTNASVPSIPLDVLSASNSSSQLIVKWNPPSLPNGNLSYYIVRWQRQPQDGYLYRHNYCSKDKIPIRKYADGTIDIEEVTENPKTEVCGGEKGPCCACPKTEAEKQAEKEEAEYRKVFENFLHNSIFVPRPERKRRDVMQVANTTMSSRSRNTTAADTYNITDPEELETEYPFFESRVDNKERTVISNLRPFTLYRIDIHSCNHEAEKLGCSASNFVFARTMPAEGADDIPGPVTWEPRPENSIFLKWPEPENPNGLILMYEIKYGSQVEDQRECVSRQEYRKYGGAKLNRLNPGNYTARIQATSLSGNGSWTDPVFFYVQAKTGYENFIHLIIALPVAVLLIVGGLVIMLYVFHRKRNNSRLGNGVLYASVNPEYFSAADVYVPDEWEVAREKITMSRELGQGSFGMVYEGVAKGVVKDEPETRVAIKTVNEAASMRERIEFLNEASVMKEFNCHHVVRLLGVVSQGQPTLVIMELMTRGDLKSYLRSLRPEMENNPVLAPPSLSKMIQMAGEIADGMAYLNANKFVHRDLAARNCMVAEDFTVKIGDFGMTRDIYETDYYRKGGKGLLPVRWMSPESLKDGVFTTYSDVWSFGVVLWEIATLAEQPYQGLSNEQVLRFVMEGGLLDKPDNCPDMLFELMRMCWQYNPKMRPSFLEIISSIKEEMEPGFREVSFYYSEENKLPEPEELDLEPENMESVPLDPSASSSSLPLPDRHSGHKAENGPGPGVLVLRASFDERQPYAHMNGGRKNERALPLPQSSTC

As to `C=CC(=O)Nc1cc(Nc2ncc(C#N)c(-c3cn(C45CC(C4)C5)c4ccccc34)n2)c(OC)cc1N(C)CCN(C)C` [Example 3, N-(5-((4-(1-(bicyclo[1.1.1]pentan-1-yl)-1H-indol-3-yl)-5-cyanopyrimidin-2-yl)amino)-2-((2-(dimethylamino)ethyl)(methyl)amino)-4-methoxyphenyl)acrylamide], the IC50 in the data set on A431 (WT) was 50 to 300 nM; on EGFR (T790M/L858R) it was at most 10 nM; with H1975 (L858R/T790M), at most 50 nM; in the data set on PC9 (E746-A750 deletion) it was at most 50 nM; at IGF1R, at least 100 nM; on INSR, at least 100 nM. Moreover, the half-maximal inhibitory concentration (IC50) on EGFR Del-19 and against EGFR Wt was at most 10 nM throughout.

As for `C=CC(=O)Nc1cc(Nc2nccc(-c3cn(C45CC(C#N)(C4)C5)c4ccccc34)n2)c(OC)cc1N(C)CCN(C)C` [Example 2, N-(5-((4-(1-(3-cyanobicyclo[1.1.1]pentan-1-yl)-1H-indol-3-yl)pyrimidin-2-yl)amino)-2-((2-(dimethylamino)ethyl)(methyl)amino)-4-methoxyphenyl)acrylamide], the IC50 was at least 300 nM in the data set with A431 (WT); at most 10 nM against EGFR (T790M/L858R); 50 to 300 nM with H1975 (L858R/T790M); 50 to 300 nM in the data set on PC9 (E746-A750 deletion); at least 100 nM at IGF1R; at least 100 nM on INSR. The IC50 at EGFR Del-19 and at EGFR Wt was at most 10 nM in each case.

As for `C=CC(=O)Nc1cc(Nc2nccc(-c3nn(C45CC(C4)C5)c4ccccc34)n2)c(OC)cc1N(C)CCN(C)C` [Example 5, N-(5-((4-(1-(bicyclo[1.1.1]pentan-1-yl)-1H-indazol-3-yl)pyrimidin-2-yl)amino)-2-((2-(dimethylamino)ethyl)(methyl)amino)-4-methoxyphenyl)acrylamide], the IC50 with A431 (WT) was at least 300 nM; on EGFR (T790M/L858R), at most 10 nM; in the data set with H1975 (L858R/T790M), at most 50 nM; in the data set with PC9 (E746-A750 deletion), 50 to 300 nM; on IGF1R, at least 100 nM; against INSR, at least 100 nM. Also, the 50% inhibitory concentration (IC50) against EGFR Del-19 and against EGFR Wt was at most 10 nM in each case.

Regarding `C=CC(=O)Nc1cc(Nc2nccc(-c3cn(C)c4ccccc34)n2)c(OC)cc1N(C)C12CC(N(C)C)(C1)C2` [Example 6, N-(2-((3-(dimethylamino)bicyclo[1.1.1]pentan-1-yl)(methyl)amino)-4-methoxy-5-((4-(1-methyl-1H-indol-3-yl)pyrimidin-2-yl)amino)phenyl)acrylamide], the IC50 in the data set on A431 (WT) was at least 300 nM; against EGFR (T790M/L858R) it was at most 10 nM; in the data set on H1975 (L858R/T790M), at least 300 nM; in the data set with PC9 (E746-A750 deletion), at least 300 nM; on IGF1R, at least 100 nM; on INSR, at least 100 nM. Further, the IC50 against EGFR Del-19, against EGFR Wt and against EGFR L858R was at least 100 nM throughout.

Consider `C=CC(=O)Nc1cc(Nc2nccc(-c3cn(C45CC(F)(C4)C5)c4ccccc34)n2)c(OC)cc1N(C)CCN(C)C` [Example 7, N-(2-((2-(dimethylamino)ethyl)(methyl)amino)-5-((4-(1-(3-fluorobicyclo[1.1.1]pentan-1-yl)-1H-indol-3-yl)pyrimidin-2-yl)amino)-4-methoxyphenyl)acrylamide], for which the IC50 with A431 (WT) was at least 300 nM; against EGFR (T790M/L858R) it was at most 10 nM; with H1975 (L858R/T790M), at most 50 nM; in the data set with PC9 (E746-A750 deletion), at least 300 nM; on EGFR Del-19, at most 10 nM; on EGFR Wt, at most 10 nM. The compound further registered a 50% inhibitory concentration (IC50) against EGFR L858R of at most 10 nM.

Take `C=CC(=O)Nc1cc(Nc2nccc(-c3cn(C45CC(C4)C5)c4ccccc34)n2)c(OC)cc1N(C)CCN(C)C` [Example 1, N-(5-((4-(1-(bicyclo[1.1.1]pentan-1-yl)-1H-indol-3-yl)pyrimidin-2-yl)amino)-2-((2-(dimethylamino)ethyl)(methyl)amino)-4-methoxyphenyl)acrylamide]: the IC50 is at least 300 nM with A431 (WT); at most 10 nM on EGFR (T790M/L858R); at most 50 nM in the data set with H1975 (L858R/T790M); at most 50 nM in the data set with PC9 (E746-A750 deletion); at least 100 nM against IGF1R; at least 100 nM against INSR. Further, the IC50 on EGFR Del-19, against EGFR Wt and against EGFR L858R was at most 10 nM each time. The “Metabolite AZ5104, Human” value with hepatocytes is on record as “did not lead to the formation”.

As for `C=CC(=O)Nc1cc(Nc2nccc(-c3cn(C)c4ccccc34)n2)c(OC)cc1N(C)C12CC(CN(C)C)(C1)C2` [Example 4, N-(2-((3-((dimethylamino)methyl)bicyclo[1.1.1]pentan-1-yl)(methyl)amino)-4-methoxy-5-((4-(1-methyl-1H-indol-3-yl)pyrimidin-2-yl)amino)phenyl)acrylamide], the half-inhibitory concentration (IC50) with A431 (WT) is at least 300 nM; at EGFR (T790M/L858R) it was at least 100 nM; with H1975 (L858R/T790M), at least 300 nM; in the data set on PC9 (E746-A750 deletion), at least 300 nM; on IGF1R it was at least 100 nM; at INSR, at least 100 nM. The IC50 was at least 100 nM against EGFR Del-19 and 10 to 100 nM on EGFR Wt.

For the compound `C=CC(=O)Nc1cc(Nc2nccc(-c3cn(C45CC(C4)C5)c4ccccc34)n2)c(OC)cc1N(C)CCNC` [Example 8, N-(5-((4-(1-(Bicyclo[1.1.1]pentan-1-yl)-1H-indol-3-yl)pyrimidin-2-yl)amino)-4-methoxy-2-(methyl(2-(methylamino)ethyl)amino)phenyl)acrylamide], the IC50 in the data set with A431 (WT) is at least 300 nM; on EGFR (T790M/L858R) it was at most 10 nM; in the data set with H1975 (L858R/T790M), at most 50 nM; with PC9 (E746-A750 deletion) it was at most 50 nM; on IGF1R it was at least 100 nM; on INSR, at least 100 nM. Besides, the values for the IC50 on EGFR Del-19 and on EGFR Wt were at most 10 nM and 10 to 100 nM, respectively.

Source of the values: patent US12049460B2, “EGFR inhibitor compounds” (Recurium IP Holdings, LLC, priority 2016, dated 2024).
